The values below are quoted from earlier work in publication PMC10674484, “A Spectroscopic and Molecular Dynamics Study on the Aggregation Properties of a Lipopeptide Analogue of Liraglutide, a Therapeutic Peptide against Diabetes Type 2” (Molecules, 2023).

Read-outs that look alike come from different tables or passages of the source.

On series [1], the source says:
Liraglutide (LG), a lipidated glucagon-like peptide 1 derivative, more than a decade ago became a once daily leading drug in the therapy of diabetes and obesity. However, despite its prominent role in the market, LG pharmacokinetics is still under scrutiny. Former studies have shown that LG complexation with human serum albumin (HSA) is one of the factors affecting LG circulation time and catabolism. Moreover, it has been shown that the relatively large size of HSA protects LG against proteolytic degradation or rapid renal filtration, resulting in a long half-life in human ...

On series [2], the source says:
(§1) From this point of view, it is interesting to compare the aggregation properties and binding affinity to serum proteins of Liraglutide, a once daily administration drug, and Semaglutide, a one weekly administration drug.
The source holds these as a separate data set.

The next series deals with albumin.
Excerpt: as §1

In the case of Liraglutide, the half-life in series [1] (humans, subcutaneous administration) was 11 to 15 h. Also, the “number of LP units per aggregate” value in series [1] (pH 6.4) is “twelve”; in series [1] (pH 8), “eight”. Also, in series [2], the “cac compared with Semaglutide” value is “lower than the latter”.

On to Semaglutide, for which the “affinity for albumin compared with Liraglutide” value with albumin is listed as “markedly higher”.

Usually half-life stands for how long it takes for the measured level to halve.
